Data reported in patent publication US20150374676A1, “HELICASE-PRIMASE INHIBITORS FOR USE IN A METHOD OF TREATING ALZHEIMER'S DISEASE” (AICURIS GMBH & CO. KG, priority 2013, published 2015).
Where two headings read alike, the source gives them in different places.

Assay: Single-dose escalation pharmacokinetics in volunteers
Type: in vivo, human
Details: for AUC(0-t): read-out: AUC0-24h; for Ae: excreted in urine
Description: Exposure of the free base form of N-[5-(aminosulfonyl)-4-methyl-1,3-thiazol-2-yl]-N-methyl-2-[4-(2-pyridinyl)-phenyl]acetamide to the human body may be measured by high pressure liquid chromatography (HPLC) by looking at different pharmacokinetic parameters in suitable bodily fluids such as for instance blood plasma and urine, the most common parameters being the Cmax, the so-called area under the curve (AUC), and the terminal half-life (t1/2Z). Hereto, the person skilled in the art understands that said parameters are determined by using adequate bioanalytical methods with adequate sensitivity, specificity, ruggedness, stability and repeatability, as for instance a qualified liquid chromatography triple quad mass spectrometry based method coupled with a suitable extraction method for the separation of the analyte from, e.g. the blood plasma.
Therefore, pharmacokinetic studies in human subjects were undertaken following both single and multiple dose administrations of the crystalline mono mesylate monohydrate salt of N-[5-(aminosulfonyl)-4-methyl-1,3-thiazol-2-yl]-N-methyl-2-[4-(2-pyridinyl)phenyl]acetamide, wherein the particle size distribution is preferably defined by d(0.1) from 2 to 100 μm, d(0.5) from 30 to 210 μm and d(0.9) from 70 to 400 μm with a specific surface area of the particles less than 1.0 m^2/g, and more preferably defined by d(0.1) from 10 to 75 μm, d(0.5) from 100 to 175 μm, d(0.9) from 200 to 350 μm with a specific surface area of the particles less than 0.3 m^2/g.
Single oral doses of the crystalline mono mesylate monohydrate salt of N-[5-(aminosulfonyl)-4methyl1,3thiazol-2-yl]-N-methyl-2-[4-(2-pyridinyl)phenyl]acetamide using the formulations in accordance with example a and Table a, were administered to six volunteers per dose step. The overall shape of the plasma concentrations vs. time profiles were similar across all doses applied (see FIG. 4 and FIG. 6).
Table b: Pharmacokinetic parameters after ascending single oral doses of crystalline mono mesylate monohydrate salt of N-[5-(aminosulfonyl)-4-methyl-1,3-thiazol-2-yl]-N-methyl-2-[4-(2-pyridinyl)phenyl]acetamide in the formulations in accordance with table a wherein the particle size distribution is preferably defined by d(0.1) from 2 to 100 μm, d(0.5) from 30 to 210 μm and d(0.9) from 70 to 400 μm with a specific surface area of the particles less than 1.0 m^2/g, and more preferably defined by d(0.1) from 10 to 75 μm, d(0.5) from 100 to 175 μm, d(0.9) from 200 to 350 μm with a specific surface area of the particles less than 0.3 m^2/g.
AUC0-∞: Area under the analyte vs. time concentration from time of administration up to infinity, calculated as
wherein AUC0-last is defined as the area under the analyte vs. time concentration up to time of the last qualifiable concentration, calculated by linear up/log down summation and Clast is defined as last quantifiable observed analyte concentration. λz is the apparent terminal elimination rate constant, determined by linear regression of terminal points of In-linear analyte concentration-time curve.
Cmax is the maximal observed analyte concentration and tmax is the time to reach Cmax;
t1/2z is defined as the apparent terminal elimination half-life, calculated as
MRT: Mean Residence Time; calculated AUMC divided by AUC, wherein AUMC is the area under the first moment of the concentration-time curve from zero up to ∞ with extrapolation of the terminal phase and AUC is the area under the concentration-time curve from zero up to ∞ with extrapolation of the terminal phase.
CL/F refers to the clearance after oral administration of a drug and Ae refers to the amount of drug excreted in the urine.

[1] = single oral dose 5 mg free base equivalent, human, mean, n = 6
[2] = single oral dose 10 mg free base equivalent, human, mean, n = 6
[3] = single oral dose 20 mg free base equivalent, human, mean, n = 6
[4] = single oral dose 40 mg free base equivalent, human, mean, n = 6
[5] = single oral dose 80 mg free base equivalent, females, human, mean, n = 6
[6] = single oral dose 80 mg free base equivalent, males, human, mean, n = 6
[7] = single oral dose 160 mg free base equivalent, human, mean, n = 6
[8] = single oral dose 160 mg free base equivalent, human, mean, n = 6, free base in plasma
[9] = single oral dose 240 mg free base equivalent, human, mean, n = 6
[10] = single oral dose 240 mg free base equivalent, human, mean, n = 6, free base in plasma
[11] = single oral dose 320 mg free base equivalent, human, mean, n = 6
[12] = single oral dose 320 mg free base equivalent, human, mean, n = 6, free base in plasma
[13] = single oral dose 400 mg free base equivalent, human, mean, n = 6
[14] = single oral dose 400 mg free base equivalent, human, mean, n = 6, free base in plasma
[15] = single oral dose 480 mg free base equivalent, human, mean, n = 6
[16] = single oral dose 480 mg free base equivalent, human, mean, n = 6, free base in plasma
[17] = single oral dose 600 mg free base equivalent, human, mean, n = 6

## CS(=O)(=O)O.Cc1nc(N(C)C(=O)Cc2ccc(-c3ccccn3)cc2)sc1S(N)(=O)=O [mono mesylate monohydrate salt, N-[5-(aminosulfonyl)-4-methyl-1,3-thiazol-2-yl]-N-methyl-2-[4-(2-pyridinyl)-phenyl]acetamide mono methanesulfonic acid monohydrate]
40 mg dosage as free base equivalent, single oral dose
  t1/2z on average: 72 ± 3 h
80 mg dosage as free base equivalent, single oral dose
  t1/2z on average: 74 ± 5 h
160 mg dosage as free base equivalent, single oral dose
  t1/2z on average: 63 ± 6 h
240 mg dosage as free base equivalent, single oral dose
  t1/2z on average: 64 ± 5 h
320 mg dosage as free base equivalent, single oral dose
  t1/2z on average: 57 ± 3 h
400 mg dosage as free base equivalent, single oral dose
  t1/2z on average: 57 ± 4 h
480 mg dosage as free base equivalent, single oral dose
  t1/2z on average: 53 ± 4 h
female, plasma, single oral dose 80 mg free base equivalent, females, human, mean, n = 6
  MRT: 77 h
female, plasma, single oral dose 80 mg free base equivalent, females, human, median, n = 6, read-out: tmax
  Tmax: 4 h
female, single oral dose 80 mg free base equivalent, females, human, mean, n = 6, free base in plasma
  AUC(0-inf): 96200 ng·h/mL
female, single oral dose 80 mg free base equivalent, females, human, mean, n = 6, free base in plasma, read-out: Cmax
  Cmax: 2000 ng/mL
human, plasma, 80 mg dosage as free base equivalent, single oral dose
  AUC(0-t): 21900 ± 2060 ng·h/mL
human, plasma, 80 mg dosage as free base equivalent, single oral dose, read-out: mean maximum blood plasma concentration (mean Cmax) of the free base
  Cmax: 1310 ± 125 ng/mL
human, plasma, 160 mg dosage as free base equivalent, single oral dose
  AUC(0-t): 40500 ± 16700 ng·h/mL
human, plasma, 160 mg dosage as free base equivalent, single oral dose, read-out: mean maximum blood plasma concentration (mean Cmax) of the free base
  Cmax: 2610 ± 1340 ng/mL
human, plasma, 240 mg dosage as free base equivalent, single oral dose
  AUC(0-t): 59600 ± 12800 ng·h/mL
human, plasma, 240 mg dosage as free base equivalent, single oral dose, read-out: mean maximum blood plasma concentration (mean Cmax) of the free base
  Cmax: 3600 ± 752 ng/mL
human, plasma, 320 mg dosage as free base equivalent, single oral dose
  AUC(0-t): 76200 ± 27600 ng·h/mL
human, plasma, 320 mg dosage as free base equivalent, single oral dose, read-out: mean maximum blood plasma concentration (mean Cmax) of the free base
  Cmax: 4650 ± 1810 ng/mL
human, plasma, 400 mg dosage as free base equivalent, single oral dose
  AUC(0-t): 105000 ± 25700 ng·h/mL
human, plasma, 400 mg dosage as free base equivalent, single oral dose, read-out: mean maximum blood plasma concentration (mean Cmax) of the free base
  Cmax: 6930 ± 1660 ng/mL
human, plasma, 480 mg dosage as free base equivalent, single oral dose
  AUC(0-t): 113000 ± 34300 ng·h/mL
human, plasma, 480 mg dosage as free base equivalent, single oral dose, read-out: mean maximum blood plasma concentration (mean Cmax) of the free base
  Cmax: 6920 ± 2190 ng/mL
male, human, plasma, 40 mg dosage as free base equivalent, single oral dose
  AUC(0-t): 10100 ± 3110 ng·h/mL
male, human, plasma, 40 mg dosage as free base equivalent, single oral dose, read-out: mean maximum blood plasma concentration (mean Cmax) of the free base
  Cmax: 608 ± 184 ng/mL
male, plasma, single oral dose 80 mg free base equivalent, males, human, mean, n = 6
  MRT: 94 h
male, plasma, single oral dose 80 mg free base equivalent, males, human, median, n = 6, read-out: tmax
  Tmax: 2.5 h
male, single oral dose 80 mg free base equivalent, males, human, mean, n = 6, free base in plasma
  AUC(0-inf): 87200 ng·h/mL
male, single oral dose 80 mg free base equivalent, males, human, mean, n = 6, free base in plasma, read-out: Cmax
  Cmax: 1310 ng/mL
plasma, single oral dose 5 mg free base equivalent, human, mean, n = 6
  MRT: 117 h
plasma, single oral dose 5 mg free base equivalent, human, median, n = 6, read-out: tmax
  Tmax: 4 h
plasma, single oral dose 10 mg free base equivalent, human, mean, n = 6
  MRT: 116 h
plasma, single oral dose 10 mg free base equivalent, human, median, n = 6, read-out: tmax
  Tmax: 1.5 h
plasma, single oral dose 20 mg free base equivalent, human, mean, n = 6
  MRT: 105 h
plasma, single oral dose 20 mg free base equivalent, human, median, n = 6, read-out: tmax
  Tmax: 2.77 h
plasma, single oral dose 40 mg free base equivalent, human, mean, n = 6
  MRT: 94 h
plasma, single oral dose 40 mg free base equivalent, human, median, n = 6, read-out: tmax
  Tmax: 3.5 h
plasma, single oral dose 160 mg free base equivalent, human, mean, n = 6
  MRT: 83 h
plasma, single oral dose 160 mg free base equivalent, human, median, n = 6, read-out: tmax
  Tmax: 3.5 h
plasma, single oral dose 240 mg free base equivalent, human, mean, n = 6
  MRT: 82 h
plasma, single oral dose 240 mg free base equivalent, human, median, n = 6, read-out: tmax
  Tmax: 4 h
plasma, single oral dose 320 mg free base equivalent, human, mean, n = 6
  MRT: 70 h
plasma, single oral dose 320 mg free base equivalent, human, median, n = 6, read-out: tmax
  Tmax: 2.25 h
plasma, single oral dose 400 mg free base equivalent, human, mean, n = 6
  MRT: 64 h
plasma, single oral dose 400 mg free base equivalent, human, median, n = 6, read-out: tmax
  Tmax: 4.25 h
plasma, single oral dose 480 mg free base equivalent, human, mean, n = 6
  MRT: 72 h
plasma, single oral dose 480 mg free base equivalent, human, median, n = 6, read-out: tmax
  Tmax: 3.25 h
plasma, single oral dose 600 mg free base equivalent, human, mean, n = 6
  MRT: 65 h
plasma, single oral dose 600 mg free base equivalent, human, median, n = 6, read-out: tmax
  Tmax: 4.25 h
plasma, single oral doses 5-600 mg free base equivalent, human, no obvious relation to dose, read-out: median tmax, range over doses
  Tmax: 1.5 to 4.25 h
plasma, single oral doses 5-600 mg free base equivalent, human, read-out: mean terminal elimination half-life (t1/2z), range over doses
  half-life: 52 to 85 h
Single dose of 80 mg as free base equivalent, after normalization to body weight
  gender-related difference in exposure: No clinical relevant gender-related difference in exposure
Single dose of 600 mg as free base equivalent, human
  exposure as shown by AUC0-∞ at the highest dose: did not cause any further rise of exposure
Single doses from 5 mg to 400 mg as free base equivalent, human
  dose dependence of maximum plasma concentrations: linearly related to doses
Single doses from 5 mg to 480 mg as free base equivalent, human
  dose dependence of AUC0-∞: dose-proportional increase
[1]
  CL/F: 0.89 L/h
  t1/2z: 80 h
  Ae: 0 % of dose
Single oral dose 5 mg free base equivalent, human, mean, n = 6, free base in plasma
  AUC(0-inf): 5800 ng·h/mL
Single oral dose 5 mg free base equivalent, human, mean, n = 6, free base in plasma, read-out: Cmax
  Cmax: 74 ng/mL
[2]
  CL/F: 0.87 L/h
  t1/2z: 85 h
  Ae: 0 % of dose
Single oral dose 10 mg free base equivalent, human, mean, n = 6, free base in plasma
  AUC(0-inf): 11700 ng·h/mL
Single oral dose 10 mg free base equivalent, human, mean, n = 6, free base in plasma, read-out: Cmax
  Cmax: 170 ng/mL
[3]
  CL/F: 1.10 L/h
  t1/2z: 76 h
  Ae: 0 % of dose
Single oral dose 20 mg free base equivalent, human, mean, n = 6, free base in plasma
  AUC(0-inf): 18500 ng·h/mL
Single oral dose 20 mg free base equivalent, human, mean, n = 6, free base in plasma, read-out: Cmax
  Cmax: 234 ng/mL
[4]
  CL/F: 1.00 L/h
  t1/2z: 72 h
  Ae: 0 % of dose
Single oral dose 40 mg free base equivalent, human, mean, n = 6, free base in plasma
  AUC(0-inf): 40700 ng·h/mL
Single oral dose 40 mg free base equivalent, human, mean, n = 6, free base in plasma, read-out: Cmax
  Cmax: 608 ng/mL
[5]
  CL/F: 0.85 L/h
  t1/2z: 58 h
  Ae: 0.31 % of dose
[6]
  CL/F: 0.94 L/h
  t1/2z: 74 h
  Ae: 0.16 % of dose
[7]
  CL/F: 1.28 L/h
  t1/2z: 63 h
  Ae: 0.15 % of dose
[8]
  AUC(0-inf): 131000 ng·h/mL
  Cmax: 2613 ng/mL
[9]
  CL/F: 1.15 L/h
  t1/2z: 64 h
  Ae: 0.21 % of dose
[10]
  AUC(0-inf): 217000 ng·h/mL
  Cmax: 3600 ng/mL
[11]
  CL/F: 1.47 L/h
  t1/2z: 57 h
  Ae: 0.16 % of dose
[12]
  AUC(0-inf): 241000 ng·h/mL
  Cmax: 4648 ng/mL
[13]
  CL/F: 1.31 L/h
  t1/2z: 57 h
  Ae: 0.15 % of dose
[14]
  AUC(0-inf): 320000 ng·h/mL
  Cmax: 6926 ng/mL
[15]
  CL/F: 1.33 L/h
  t1/2z: 53 h
  Ae: 0.26 % of dose
[16]
  AUC(0-inf): 387000 ng·h/mL
  Cmax: 6921 ng/mL
[17]
  CL/F: 2.00 L/h
  t1/2z: 52 h
  Ae: 0.09 % of dose
Single oral dose 600 mg free base equivalent, human, mean, n = 6, free base in plasma
  AUC(0-inf): 321000 ng·h/mL
Single oral dose 600 mg free base equivalent, human, mean, n = 6, free base in plasma, read-out: Cmax
  Cmax: 6440 ng/mL
